The test system of assay [1] is vGLUT1- bzw. vGLUT2-Transporter. Put plainly: Glutamate uptake in rat crude synaptic vesicles ([3H]-glutamate). It is filed as biochemical, Ratte. Conditions: for vGLUT (Ratte), Hemmung [%]: test concentration not given. The text has this: Die agonistische bzw. antagonistische Wirkung der zu untersuchenden Verbindungen am vGLUT1- bzw. vGLUT2-Transporter der Spezies Ratte kann mit folgendem Assay bestimmt werden.
Glutamat-Uptake in Rattenvesikel ('rat crude synaptic vesicles')
Die Präparation von Vesikeln wurde aus Rattengehirn-Homogenaten (männlichen Ratten, Stamm Wistar SPF, 150-250 g Gewicht) durchgeführt gemäß Roseth et al. (1995) J. Neurochem. 65: 96-103, der sich auf Whittaker et al. (1964) Biochem J. 90, 293-303 und Fykse und Fonnum (1988) J. Neurochem. 50: 1237-1242 bezieht.
Hierzu wurden frisch entnommene Rattengehirne in 0,32 M Saccharose, 10 mM TRIS-maleat, 1 mM EGTA, pH 7,4 (10 ml/g Frischgewicht) mit einem Potter-Homogenisator (Fa. Braun/Melsungen; 5 Kolbenhübe bei 800 Upm) unter Eiskühlung homogenisiert und anschließend für 10 Minuten bei 3.000 g und 4°C zentrifugiert. Der resultierende Überstand wurde bei 20.000 g für 30 Minuten bei 4°C zentrifugiert. Das entstandene Pellet wurde dann im Verhältnis 1:3 mit 10 mM TRIS-maleate, 0,1 mM EGTA, pH 7,4 osmotisch geschockt und die Suspension bei 17000g für 30 min (4°C) zentrifugiert. Die im Überstand verbliebenen Vesikel wurden nun auf einen Dichtegradienten aus 0,6 M Saccharose in 10 mM TRIS-maleat, 1 mM EGTA, pH 7.4 und 0.4 M Saccharose in 10 mM TRIS-maleat, 1 mM EGTA, pH 7.4 geschichtet. Eine Ultrazentrifugation der Gradienten im Ausschwingrotor bei 65000g für 2h (4°C) schloss sich an. Die Vesikel-Fraktion wurde von der 0.4 M Saccharose-Bande isoliert und im Uptake-Versuch eingesetzt.
Die Substratlösung für den Uptake von [^3H]-Glutamat bestand aus ATP (neutralisiert mit Trisma base; 2 mM im Endansatz), Glutamat (0.5 mM im Endansatz) und ^3H-Glutamat (0.5 µCi im Endansatz). In 14 ml-Reagiergefäßen (Sarstedt, Artikel-Nr.: 798438) wurden jeweils 0,3 ml Gesamtvolumina (n=2/Probe) pipettiert in der folgenden Reihenfolge: 1.) 165 µl Inkubationspuffer (110 mM Kaliumtartrat, 10 mM TRIS-maleat, pH 7,4, 4 mM MgCl2), 2.) 10 µl Testsubstanz oder Vehikelkontrolle oder blank, 3.) 100 µl synaptische Vesikel. Es schloss sich eine Vorinkubation von 15 min bei 30°C an (nur blank-Ansätze befanden sich hierbei auf Eis). Danach wurde der Uptake durch Zugabe von 25 µl der oben beschriebenen Substratlösung gestartet. Die Reaktion wurde nach 5 min durch Zugabe von 7,0 ml eiskalter 150 mM KCl gestoppt. Anschließend wurden die Proben mit Hilfe des Brandel Cell Harvesters Typ M-24R über einen Membranfilter der Porengröße 0,8 µm abgesaugt und zweimal mit eiskalter 150 mM KCl nachgewaschen. Die Messung erfolgte am beta-Counter nach 15 h in 10 ml Szintillatorflüssigkeit (Filter Count).

Another assay relates to NMRI-Mäuse. Put plainly: Phenylquinone-induced writhing test in the mouse. It counts as in vivo. Conditions: 10 mg/kg. The text has this: Die Untersuchung der Verbindungen der allgemeinen Formel (I) auf analgetische Wirksamkeit wurde im Phenylchinon-induzierten Writhing an der Maus, modifiziert nach I.C. Hendershot und J. Forsaith (1959) J. Pharmacol. Exp. Ther. 125, 237-240 durchgeführt. Die entsprechende Literaturbeschreibung wird hiermit als Referenz eingeführt und gilt als Teil der Offenbarung.
Dazu wurden männliche NMRI-Mäuse mit einem Gewicht von 25 bis 30 g verwendet. Gruppen von 10 Tieren pro Verbindungsdosis erhielten 10 Minuten nach intravenöser Gabe der zu untersuchenden Verbindungen 0,3 ml/Maus einer 0.02%igen wässrigen Lösung von Phenylchinon (Phenylbenzochinon, Fa. Sigma, Deisenhofen, Deutschland; Herstellung der Lösung unter Zusatz von 5 Gew.-% Ethanol und Aufbewahrung im Wasserbad bei 45°C) intraperitoneal appliziert. Die Tiere wurden einzeln in Beobachtungskäfige gesetzt. Mit Hilfe eines Drucktastenzählers wurde die Anzahl der schmerzinduzierten Streckbewegungen (sogenannte Writhingreaktionen = Durchdrücken des Körpers mit Abstrecken der Hinterextremitäten) 5 bis 20 Minuten nach der Phenylchinon-Gabe ausgezählt. Als Kontrolle wurden Tiere mit geführt, die Vehikellösung (i.v.) und Phenylchinon (i.p.)erhalten hatten. Alle Verbindungen wurden in der Standarddosierung von 10 mg/kg getestet. […]
For orientation: Writhing tests count abdominal constrictions after an irritant is injected.

A further assay has as its system Sprague-Dawley Ratten. Put plainly: Neuropathic pain in the rat, Bennett model (chronic constriction injury, cold allodynia). It counts as in vivo, Ratte. How it is done:
Die Untersuchung auf Wirksamkeit im neuropathischen Schmerz wurde im Bennett-Modell (chronic constriction injury; Bennett und Xie, 1988, Pain 33: 87-107) untersucht.
Sprague-Dawley Ratten mit einem Gewicht von 140-160 g werden unter Nembutal-Narkose mit vier losen Ligaturen des rechten nervus ischiaticus versehen. Die Tiere entwickeln an der vom geschädigten Nerv innervierten Pfote eine Überempfindlichkeit, die nach einer Erholungsphase von einer Woche über etwa vier Wochen mittels einer 4°C kalten Metallplatte quantifiziert wird (Kälte-Allodynie). Die Tiere werden für einen Zeitraum von 2 min. auf dieser Platte beobachtet und die Anzahl der Wegziehreaktionen der geschädigten Pfote wird gemessen. Bezogen auf den Vorwert vor Substanzapplikation wird die Substanzwirkung über einen Zeitraum von einer Stunde an vier Zeitpunkten (15, 30, 45, 60 min. nach Applikation) bestimmt und die resultierend Fläche unter der Kurve (AUD) sowie die Hemmung der Kälte-Allodynie zu den einzelnen Messpunkten in Prozent Wirkung zur Vehikelkontrolle (AUD) bzw. zum Ausgangswert (Einzelmesspunkte) ausgedrückt (%MPE). Die Gruppengröße beträgt n=10, die Signifikanz einer anti-allodynischen Wirkung wird über eine Varianzanalyse (repeated measures ANOVA; * p ≤ 0.05; Armitage und Berry, 1987, Stat. Methods in Medical Research, London: Blackwell Scientific Publications) bestimmt.

A further assay relates to Mäusen (NMRI). Description: Formalin test in the mouse (second phase). It counts as in vivo. The note with it: Maus i.p., 21,5 mg/kg. The text has this:
Die Untersuchung zur Bestimmung der antinociceptiven Wirkung der Verbindungen der allgemeinen Formel (I) wird im Formalin-Test an männlichen Mäusen (NMRI, 25 bis 35 g Körpergewicht, Iffa, Credo, Belgien) durchgeführt.
Im Formalin-Test werden gemäß D. Dubuisson et al., Pain 1977, 4, 161-174 die erste (frühe) Phase (0 bis 15 Minuten nach der Formalin-Injektion) und die zweite (späte) Phase (15 bis 60 Minuten nach der Formalin-Injektion) unterschieden. Die frühe Phase stellt als direkte Reaktion auf die Formalin-Injektion ein Modell für Akutschmerz dar, während die späte Phase als Modell für persistierenden (chronischen) Schmerz angesehen wird (T. J. Coderre et al., Pain 1993, 52, 259-285). Die entsprechenden Literaturbeschreibungen werden hiermit als Referenz eingeführt und gelten als Teil der Offenbarung. […]
Anschließend wird für einen Untersuchungszeitraum von drei Minuten in der zweiten (späten) Phase des Formalin-Tests (21 bis 24 Minuten nach der Formalin-Injektion) das nociceptive Verhalten durch Beobachtung der Tiere kontinuierlich erfasst. Die Quantifizierung des Schmerzverhaltens erfolgt durch Summation der Sekunden, in denen die Tiere in dem Untersuchungszeitraum ein Lecken und Beißen der betroffenen Pfote zeigen. […]

The mark [2] stands for this setting: compound freshly dissolved from the solid substance, read-out: vGLUT (Ratte), IC50-Fest.

Where two headings read alike, the source gives them in different places.

As usually defined, the IC50 is the concentration at which inhibition is half-maximal.

As to “2,2'-(3,3'-Sulfonyl-bis-(4,1-phenylen)-bis-(azanediyl))-bis-(oxomethylen)-bis-(azanediyl)dibenzoesäure [Beispiel 10]”, in assay [1] (setting [2]), the IC50 worked out at 2.35 µM. Besides, the “vGLUT (Ratte), Hemmung [%]” value in assay [1] came to 86%.
For the compound `O=C(Cc1ccccc1)Nc1ccc(Cc2ccc(NC(=O)Cc3ccccc3)c(C(=O)O)c2)cc1C(=O)O` [Beispiel 1, 5,5'-Methylen-bis(2-(2-phenylacetamido)benzoesäure)], the IC50 in assay [1] (read-out: vGLUT (Ratte), IC50) was 9.16 µM. In assay [1], the “vGLUT (Ratte), Hemmung [%]” value came to 61%.
For `CC(=O)Nc1cc(C(=O)c2ccc(C(=O)O)c(NC(C)=O)c2)ccc1C(=O)O` [Beispiel 2, 4,4'-Carbonyl-bis(2-acetamidobenzoesäure)], the “vGLUT (Ratte), Hemmung [%]” value in assay [1] came out at 47%.
Take `O=C(c1ccc(C(=O)O)c(NC(=O)c2cccc3ccccc23)c1)c1ccc(C(=O)O)c(NC(=O)c2cccc3ccccc23)c1` [Beispiel 3, 4,4'-Carbonyl-bis(2-(1-naphthamido)benzoesäure)]: in assay [1] (read-out: vGLUT (Ratte), IC50), the IC50 came to 0.38 µM. Besides, in assay [1], the “vGLUT (Ratte), Hemmung [%]” value is recorded as 97%.
Turning to `Nc1ccccc1C(=O)Nc1ccc(-c2ccc(NC(=O)c3ccccc3N)c(C(=O)O)c2)cc1C(=O)O` [Beispiel 4, 4,4'-Bis-(2-amino-benzoylamino)-biphenyl-3,3'-dicarbonsäure], the IC50 in assay [1] (setting [2]) came out at 0.093 µM; in assay [1] (read-out: vGLUT (Ratte), IC50) it was 0.0432 µM. Besides, in assay [1], the “vGLUT (Ratte), Hemmung [%]” value worked out at 99%.
`O=C(O)c1cc(-c2ccc(NC(=O)c3cccc4ccccc34)c(C(=O)O)c2)ccc1NC(=O)c1cccc2ccccc12` [Beispiel 5, 4,4'-Bis-[(naphthalin-1-carbonyl)-amino]-biphenyl-3,3'-dicarbonsäure]: in assay [1], the “vGLUT (Ratte), Hemmung [%]” value was determined as 50%.
`Nc1ccccc1C(=O)Nc1ccc(-c2ccc(NC(=O)c3ccccc3N)c(C(=O)O)c2)cc1C(=O)O` [Beispiel 6, 4,4'-Bis-(2-aminobenzamido)biphenyl-3,3'-dicarbonsäure]: the concentration for half-maximal inhibition (IC50) stood at 0.038 µM in assay [1] (setting [2]) and 0.0897 µM in assay [1] (read-out: vGLUT (Ratte), IC50). For the same compound, the “vGLUT (Ratte), Hemmung [%]” value in assay [1] is reported as 101%.
As for `O=C(O)c1cc(NC(=O)c2cccc3ccccc23)c(C(=O)O)cc1NC(=O)c1cccc2ccccc12` [Beispiel 7, 2,5-Bis-[(naphthalin-1-carbonyl)-amino]-terephthalsäure], the half-inhibitory concentration (IC50) in assay [1] (read-out: vGLUT (Ratte), IC50) stood at 2.34 µM. Besides, the “vGLUT (Ratte), Hemmung [%]” value in assay [1] was found to be 78%.
On to `Cc1ccc(S(=O)(=O)Nc2ccc(-c3ccc(NS(=O)(=O)c4ccc(C)cc4)c(C(=O)O)c3)cc2C(=O)O)cc1` [Beispiel 8, 4,4'-Bis-(4-methylphenylsulfonamid)biphenyl-3,3'-dicarbonsäure, Dinatriumsalz], for which the concentration for half-maximal inhibition (IC50) in assay [1] (setting [2]) is 0.49 µM. Besides, in assay [1], the “vGLUT (Ratte), Hemmung [%]” value is given as 92%. Further, the “Phenylchinon-Writhing-Test Maus i.v. [Anzahl Writhing-Reaktionen in 15 min. p. appl.]” value in the assay with NMRI-Mäuse (Kontrolle 9,1±0,41) is listed as 7,8±1,16@10 mg/kg,. Besides, in the assay with NMRI-Mäuse (Maus i.v.), the “Anzahl Tiere mit ≤ 3 Writhing-Reaktionen” value is given as “(Anzahl Tiere mit ≤ 3 Writhing-Reaktionen: 1)”. Further, the “Bennett-Test Ratte; Hemmung [%]” value in the assay with Sprague-Dawley Ratten (Ratte, 4,64 mg/kg (i.v.)) is on record as 37%@ 4,64 mg/kg (i.v.). In the assay on Mäusen (NMRI), the “Formalin-Test Maus i.p.; Hemmung [%]” value is 51%@21,5 mg/kg.
For the compound `Cc1ccc(S(=O)(=O)Nc2ccc(Cc3ccc(NS(=O)(=O)c4ccc(C)cc4)c(C(=O)O)c3)cc2C(=O)O)cc1` [Beispiel 9, 5,5'-Methylen-bis(2-(4-methylphenylsulfonamido)benzoesäure)], in assay [1], the “vGLUT (Ratte), Hemmung [%]” value stood at 47%.
`Cc1ccc(S(=O)(=O)Nc2ccc(-c3ccc(NS(=O)(=O)c4ccc(C)cc4)c(C(=O)O)c3)cc2C(=O)O)cc1` [Beispiel 11, 4,4'-Bis(tolyl-4-sulfonylamino)biphenyl-3,3'-dicarbonsäure]: in assay [1] (setting [2]), the IC50 turned out to be 1.53 µM. In addition, the “vGLUT (Ratte), Hemmung [%]” value in assay [1] amounted to 97%.
Take `O=C(Nc1ccc(-c2ccc(NC(=O)c3ccccc3)c(C(=O)[O-])c2)cc1C(=O)[O-])c1ccccc1.[Na+].[Na+]` [Beispiel 12, 4,4'-Bis-(benzamido)-biphenyl-3,3'-dicarbonsäure, Dinatriumsalz]: the IC50 in assay [1] (setting [2]) is 0.039 µM. Further, the “vGLUT (Ratte), Hemmung [%]” value in assay [1] came to 102%. Moreover, the “Bennett-Test Ratte; Hemmung [%]” value in the assay on Sprague-Dawley Ratten (Ratte, 0,2 mg/kg/5 ml (i.p)) is on record as 38%@0,2 mg/kg/5 ml (i.p).
For `Nc1ccccc1C(=O)Nc1ccc(-c2ccc(NC(=O)c3ccccc3N)c(C(=O)O)c2)cc1C(=O)O` [Beispiel 13, 4,4'-Bis-(2-aminobenzamido)biphenyl-3,3'-dicarbonsäure, Dinatriumsalz], the IC50 in assay [1] (setting [2]) was found to be 0.6 µM. In assay [1], the “vGLUT (Ratte), Hemmung [%]” value turned out to be 96%.
For `Nc1ccc(-c2ccc(N)c(C(=O)O)c2)cc1C(=O)O` [Beispiel 14, 4,4'-Bisaminobiphenyl-3,3'-dicarbonsäure, Dinatriumsalz], in assay [1] (setting [2]), the half-maximal inhibitory concentration (IC50) is 47.8 µM. In addition, the “vGLUT (Ratte), Hemmung [%]” value in assay [1] turned out to be 24%.

These data come from patent EP2332529A1, “Substituted aromatic diamines as ligands of vesicular glutamate transporter 1 and 2 (vGLUT1 and vGLUT2)” (Grünenthal GmbH, priority 2009, dated 2011).
